How the values were obtained:
BxPC-3 = test: cells; type: cell-based
Protocol: (§1) The assay was contracted and carried out by WuXi AppTec (Shanghai) Co., Ltd. The tumor cell lines CCRF-CEM, HL-60, KG-1, MOLT-4, K562, MV4-11, THP-1, HEL92.1.7, NCI-H929, RPMI-8226, Jurkat, Z138, RL, HS445, HepG2, MCF-7, Bx-PC-3, HT29, MIA PaCa-2, and SW620 were seeded at cell densities of […] 10^3 cells/well in a 96-well plate the day before drug incubation. Then, the plates were incubated for 72 h with the different concentrations of compound to be tested. After the incubation period, 50 μL of MTS was added and the tumor cells were incubated for 4 h at 37 °C. The data were read and collected by a Spectra Max 340 absorbance microplate reader. The compounds were tested in duplicate with nine serial concentrations (3.16-fold titrations with 198 μM as the highest concentration), and the data were analyzed by XLfit software.

CCRF-CEM = test: cells; type: cell-based; conditions: Homo sapiens, 72 h; for CC50: read-out: LC50; for Emax: read-out: MI%
Protocol: as §1

HEL92.1.7 = test: cells; type: cell-based
Protocol: as §1

HL-60 = test: cells; type: cell-based; conditions: Homo sapiens, HL-60, 72 h; for CC50: read-out: LC50; for Emax: read-out: MI%
Protocol: as §1

HS445 = test: cells; type: cell-based
Protocol: as §1

HT29 = test: cells; type: cell-based
Protocol: as §1

HepG2 = test: cells; type: cell-based; conditions: Homo sapiens, HepG2, 72 h; for CC50: read-out: LC50; for Emax: read-out: MI%
Protocol: as §1

Jurkat = test: cells; type: cell-based; conditions: Jurkat
Protocol: as §1

K562 = test: cells; type: cell-based; conditions: Homo sapiens, K562, 72 h; for CC50: read-out: LC50; for Emax: read-out: MI%
Protocol: as §1

KG-1 = test: cells; type: cell-based; conditions: Homo sapiens, KG-1, 72 h, read-out: LC50
Protocol: as §1

MCF-7 = test: cells; type: cell-based; conditions: Homo sapiens, MCF7, 72 h; for CC50: read-out: LC50; for Emax: read-out: MI%
Protocol: as §1

MIA PaCa-2 = test: cells; type: cell-based
Protocol: as §1

MOLT-4 = test: cells; type: cell-based; conditions: Homo sapiens, MOLT-4, 72 h; for CC50: read-out: LC50; for Emax: read-out: MI%
Protocol: as §1

MV4-11 = test: cells; type: cell-based
Protocol: as §1

NCI-H929 = test: cells; type: cell-based
Protocol: as §1

RL = test: cells; type: cell-based
Protocol: as §1

RPMI-8226 = test: cells; type: cell-based
Protocol: as §1

SW620 = test: cells; type: cell-based
Protocol: as §1

THP-1 = test: cells; type: cell-based
Protocol: as §1

[1] = cited from earlier work
[2] = Homo sapiens, 72 h, read-out: LC50
[3] = maximum inhibitory effect over concentration range

SMILES: C[C@H](N[P@@](=O)(OC[C@@H]1C[C@@H](O)[C@H](n2cnc3c(N)ncnc32)O1)Oc1ccccc1)C(=O)OCc1ccccc1 [Rp-7a]
- MI% (BxPC-3; BxPC-3, maximum inhibitory effect over concentration range): 71%
- CC50 (BxPC-3; Homo sapiens, BXPC-3, 72 h, read-out: LC50): 74 µM
- CC50 (CCRF-CEM): 1.86 µM
- Emax (CCRF-CEM): 97%
- MI% (HEL92.1.7; HEL92.1.7, maximum inhibitory effect over concentration range): 98%
- CC50 (HEL92.1.7; Homo sapiens, HEL 92.1.7, 72 h, read-out: LC50): 11 µM
- CC50 (HL-60): 8.7 µM
- Emax (HL-60): 100%
- MI% (HS445; HS445, maximum inhibitory effect over concentration range): 99%
- CC50 (HS445; Homo sapiens, Hs 445, 72 h, read-out: LC50): 42 µM
- MI% (HT29; HT29, maximum inhibitory effect over concentration range): 97%
- CC50 (HT29; Homo sapiens, HT-29, 72 h, read-out: lC50): 16 µM
- CC50 (HepG2): 32 µM
- Emax (HepG2): 78%
- CC50 (Jurkat; [2]): 2.82 µM
- MI% (Jurkat; [3]): 97%
- CC50 (K562): 2.6 µM
- Emax (K562): 95%
- CC50 (KG-1): 14 µM
- CC50 (MCF-7): 2.94 µM
- Emax (MCF-7): 97%
- CC50 (MIA PaCa-2; Homo sapiens, MIA PaCa-2, 72 h, read-out: LC50): 14 µM
- MI% (MIA PaCa-2; MIA PaCa-2, maximum inhibitory effect over concentration range): 96%
- CC50 (MOLT-4): 0.57 µM
- Emax (MOLT-4): 98%
- CC50 (MV4-11; Homo sapiens, MV4-11, 72 h, read-out: LC50): 0.98 µM
- MI% (MV4-11; MV4-11, maximum inhibitory effect over concentration range): 100%
- CC50 (NCI-H929; Homo sapiens, NCI-H929, 72 h, read-out: LC50): 19 µM
- MI% (NCI-H929; NCI-H929, maximum inhibitory effect over concentration range): 97%
- CC50 (RL; [2]): 4 µM
- MI% (RL; [3]): 96.8%
- CC50 (RPMI-8226; Homo sapiens, RPMI-8226, 72 h, read-out: LC50): 25 µM
- MI% (RPMI-8226; RPMI-8226, maximum inhibitory effect over concentration range): 90.8%
- CC50 (SW620; Homo sapiens, SW-620, 72 h, read-out: LC50): 29 µM
- MI% (SW620; SW620, maximum inhibitory effect over concentration range): 82%
- CC50 (THP-1; Homo sapiens, THP-1, 72 h, read-out: LC50): 35 µM
- MI% (THP-1; THP-1, maximum inhibitory effect over concentration range): 91%

SMILES: C[C@H](NP(=O)(N[C@@H](C)C(=O)OCc1ccccc1)OC[C@@H]1C[C@@H](O)[C@H](n2cnc3c(N)ncnc32)O1)C(=O)OCc1ccccc1 [Compound 9]
- CC50 (CCRF-CEM): 7.03 µM
- Emax (CCRF-CEM): 100%
- CC50 (HL-60): 16.5 µM
- Emax (HL-60): 100%
- CC50 (HepG2): 157 µM
- Emax (HepG2): 55%
- CC50 (K562): 24.3 µM
- Emax (K562): 97%
- CC50 (KG-1): 34.1 µM
- CC50 (MCF-7): 13 µM
- Emax (MCF-7): 97%
- CC50 (MOLT-4): 3.52 µM
- Emax (MOLT-4): 100%

SMILES: C[C@H](NP(=O)(Oc1ccccc1)O[C@@H]1C[C@@H](COP(=O)(N[C@H](C)C(=O)OCc2ccccc2)Oc2ccccc2)O[C@H]1n1cnc2c(N)ncnc21)C(=O)OCc1ccccc1 (stereo partly shown) [Compound 5a]
- CC50 (CCRF-CEM): 64.8 µM
- Emax (CCRF-CEM): 65%
- CC50 (HL-60): 143 µM
- Emax (HL-60): 57%
- CC50 (HepG2): 85.5 µM
- CC50 (K562): 26.3 µM
- Emax (K562): 78%
- CC50 (KG-1): 112 µM
- CC50 (MCF-7): 10.3 µM
- Emax (MCF-7): 97%
- CC50 (MOLT-4): 62.9 µM
- Emax (MOLT-4): 75%

SMILES: CC(C)OC(=O)[C@H](C)N[P@](=O)(OC[C@H]1O[C@@H](n2ccc(=O)[nH]c2=O)[C@](C)(F)[C@@H]1O)Oc1ccccc1 [sofosbuvir]
- Sp isomer fold more active than the Rp isomer [1]: 18 fold

SMILES: C[C@H](NP(=O)(Oc1ccccc1)O[C@@H]1C[C@@H](CO)O[C@H]1n1cnc2c(N)ncnc21)C(=O)OCc1ccccc1 (stereo partly shown) [Compound 6a]
- CC50 (CCRF-CEM): 17.6 µM
- Emax (CCRF-CEM): 99%
- CC50 (HL-60): 31.1 µM
- Emax (HL-60): 80%
- CC50 (HepG2): 83.1 µM
- Emax (HepG2): 55%
- CC50 (K562): 26.9 µM
- Emax (K562): 89%
- CC50 (KG-1): 79.4 µM
- CC50 (MCF-7): 5.06 µM
- Emax (MCF-7): 94%
- CC50 (MOLT-4): 18.6 µM
- Emax (MOLT-4): 100%
